Assay results from patent US20090105118A1, “Preparation and applications of novel complexes made by gamma-polyglutamic acid and cisplatin” (priority 2007, published 2009).

Tests used:
[1] = test system: Human breast cancer cells Bcap-37; experiment: Bcap-37 xenograft model, survival and body weight; type: in vivo, BALB/C female SKID mouse; conditions: Bcap-37 xenograft mice, equivalent of 4 mg/kg cisplatin, tail vein at 0 and 5 days
Protocol: Human breast cancer cells Bcap-37 in DMEM with 10% […] were cultured at 37° C. and 5% CO2. 5×10^6 Bcap cells were injected in each of BALB/C female SKID mouse (18 mice, 4 week old, 20 g each). After 7 days the mice were randomly divided into 3 groups, 6 mice per group. The first group was treated with saline, the second group was treated with cisplatin, and the third group was treated with γ-PGA-CDDP. γ-PGA-CDDP complex (at equivalent of 4 mg/kg cisplatin) was injected in a tail vein at 0 and 5 days. The survival and body weight was recorded. The results are shown in FIG. 12 and FIG. 13 which are comparisons of the toxicity of γ-PGA-CDDP and CDDP based on the survival and body weight of BALB/C female mice.

[2] = In vivo toxicity study in healthy mice (survival, body weight); conditions: Kun Ming mice, 5 mg/kg tail vein at 0, 5 and 10 days
Protocol: 20 healthy Kun Ming mice were randomly divided (10 each for male and female) into two groups. Cisplatin and γ-PGA-CDDP was individually injected in each group in a tail vein. The injections were done at 0, 5, and 10 days at 5 mg/kg. The survival and body weight of the mice were recorded. The results are shown in FIG. 10 and FIG. 11 which are comparisons of the toxicity of γ-PGA-CDDP and CDDP based on the survival of China KM mice and based on the body weight of China KM mice.

[3] = test system: Lung cancer cells; conditions: mice; PG-TXL injected at 120 mg/kg; paclitaxel used alone; cited from earlier work

cis-daimminedichloroplatinum(II) [cisplatin]
body weight change (toxicity) [1]: obvious decrease of body weight
body weight change (in vivo toxicity) [2]: reduced
mice died ([2]; after 15 days): 90%

CC(=O)O[C@H]1C(=O)[C@@]2(C)[C@H]([C@H](OC(=O)c3ccccc3)[C@]3(O)C[C@H](OC(=O)[C@H](O)[C@@H](NC(=O)c4ccccc4)c4ccccc4)C(C)=C1C3(C)C)[C@]1(OC(C)=O)CO[C@@H]1C[C@@H]2O [paclitaxel]
reduction of lung cancer cells [3]: 58%
